The NIST ThermoML archive (doi:10.1016/j.jct.2019.02.011)

Assay: xn = mol fraction of the nth substance listed
Conditions: Liquid, Vibrating tube method

COC(=O)OC [dimethyl carbonate] + CCCO
mass density [kg/m3]
Conditions | 100 kPa | 5000 kPa | 10000 kPa | 15000 kPa | 20000 kPa | 25000 kPa | 30000 kPa | 35000 kPa | 40000 kPa
293.15 K, x1 = 0.0273 | – | – | – | 821.94 | 825.23 | 828.56 | 831.57 | 834.42 | 837.07
293.15 K, x1 = 0.0506 | – | – | – | 828.58 | 831.87 | 835.25 | 838.27 | 841.13 | 843.83
293.15 K, x1 = 0.0755 | – | – | – | 835.71 | 839.06 | 842.44 | 845.52 | 848.42 | 851.14
293.15 K, x1 = 0.1007 | – | – | – | 842.9 | 846.25 | 849.69 | 852.76 | 855.68 | 858.39
293.15 K, x1 = 0.1495 | – | – | – | 856.75 | 860.16 | 863.6 | 866.73 | 869.7 | 872.48
293.15 K, x1 = 0.2003 | – | – | – | 871.06 | 874.53 | 878.01 | 881.2 | 884.18 | 887.03
293.15 K, x1 = 0.2529 | – | – | 882.09 | 885.77 | 889.3 | 892.84 | 896.04 | 899.12 | 902.04
293.15 K, x1 = 0.2993 | – | – | 894.95 | 898.64 | 902.18 | 905.76 | 909.02 | 912.16 | 915.09
293.15 K, x1 = 0.3497 | – | – | 908.71 | 912.45 | 916.05 | 919.68 | 923 | 926.2 | 929.19
293.15 K, x1 = 0.401 | – | – | 922.59 | 926.38 | 930.03 | 933.72 | 937.09 | 940.3 | 943.36
293.15 K, x1 = 0.4509 | – | – | 936.03 | 939.87 | 943.59 | 947.28 | 950.71 | 953.97 | 957.05
293.15 K, x1 = 0.5002 | – | – | 949.24 | 953.09 | 956.87 | 960.6 | 964.04 | 967.36 | 970.51
293.15 K, x1 = 0.5498 | – | – | 962.47 | 966.32 | 970.1 | 973.84 | 977.34 | 980.72 | 983.88
293.15 K, x1 = 0.5996 | – | – | 975.61 | 979.51 | 983.36 | 987.15 | 990.65 | 994.04 | 997.26
293.15 K, x1 = 0.6499 | – | – | 988.81 | 992.77 | 996.62 | 1000.46 | 1004.03 | 1007.42 | 1010.66
293.15 K, x1 = 0.7006 | – | – | 1002.08 | 1006.04 | 1009.95 | 1013.8 | 1017.37 | 1020.81 | 1024.12
293.15 K, x1 = 0.7471 | – | – | 1014.07 | 1018.08 | 1022.06 | 1025.95 | 1029.53 | 1032.98 | 1036.36
293.15 K, x1 = 0.7989 | – | – | 1027.41 | 1031.43 | 1035.41 | 1039.31 | 1042.94 | 1046.46 | 1049.84
293.15 K, x1 = 0.8491 | – | – | 1040.37 | 1044.44 | 1048.43 | 1052.38 | 1056.08 | 1059.59 | 1063.05
293.15 K, x1 = 0.8993 | – | – | 1053.34 | 1057.42 | 1061.47 | 1065.42 | 1069.12 | 1072.65 | 1076.12
293.15 K, x1 = 0.9249 | – | – | 1059.86 | 1063.94 | 1067.99 | 1071.94 | 1075.65 | 1079.23 | 1082.7
293.15 K, x1 = 0.9489 | – | – | 1065.93 | 1070.01 | 1074.07 | 1078.02 | 1081.73 | 1085.31 | 1088.8
293.15 K, x1 = 0.9743 | – | – | 1072.35 | 1076.43 | 1080.5 | 1084.5 | 1088.21 | 1091.8 | 1095.29
293.15 K, x1 = 1 | – | – | 1078.93 | 1083.01 | 1087.08 | 1091.03 | 1094.75 | 1098.34 | 1101.84
298.15 K, x1 = 0.0273 | 807.06 | 810.99 | 814.7 | 818.11 | 821.44 | – | – | – | –
298.15 K, x1 = 0.0506 | 813.55 | 817.52 | 821.28 | 824.74 | 828.12 | – | – | – | –
298.15 K, x1 = 0.0755 | 820.52 | 824.54 | 828.31 | 831.81 | 835.25 | – | – | – | –
298.15 K, x1 = 0.1007 | 827.5 | 831.52 | 835.34 | 838.84 | 842.29 | – | – | – | –
298.15 K, x1 = 0.1495 | 841.12 | 845.19 | 849.06 | 852.61 | 856.13 | – | – | – | –
298.15 K, x1 = 0.2003 | 855.15 | 859.27 | 863.19 | 866.8 | 870.37 | – | – | – | –
298.15 K, x1 = 0.2529 | 869.54 | 873.66 | 877.64 | 881.29 | 884.88 | – | – | – | –
298.15 K, x1 = 0.2993 | 882.18 | 886.34 | 890.38 | 894.08 | 897.73 | – | – | – | –
298.15 K, x1 = 0.3497 | 895.71 | 899.93 | 904.02 | 907.77 | 911.48 | – | – | – | –
298.15 K, x1 = 0.401 | 909.36 | 913.63 | 917.77 | 921.57 | 925.35 | – | – | – | –
298.15 K, x1 = 0.4509 | 922.58 | 926.89 | 931.09 | 934.95 | 938.74 | – | – | – | –
298.15 K, x1 = 0.5002 | 935.57 | 939.93 | 944.14 | 948.04 | 951.89 | – | – | – | –
298.15 K, x1 = 0.5498 | 948.57 | 952.93 | 957.19 | 961.1 | – | – | – | – | –
298.15 K, x1 = 0.5996 | 961.54 | 965.95 | 970.21 | 974.17 | – | – | – | – | –
298.15 K, x1 = 0.6499 | 974.52 | 978.92 | 983.24 | 987.25 | – | – | – | – | –
298.15 K, x1 = 0.7006 | 987.56 | 992.01 | 996.39 | 1000.44 | – | – | – | – | –
298.15 K, x1 = 0.7471 | 999.38 | 1003.88 | 1008.26 | 1012.37 | – | – | – | – | –
298.15 K, x1 = 0.7989 | 1012.54 | 1017.09 | 1021.53 | 1025.64 | – | – | – | – | –
298.15 K, x1 = 0.8491 | 1025.27 | 1029.83 | 1034.32 | 1038.48 | – | – | – | – | –
298.15 K, x1 = 0.8993 | 1038.07 | 1042.62 | 1047.12 | 1051.28 | – | – | – | – | –
298.15 K, x1 = 0.9249 | 1044.52 | 1049.07 | 1053.57 | 1057.78 | – | – | – | – | –
298.15 K, x1 = 0.9489 | 1050.53 | 1055.08 | 1059.58 | 1063.79 | – | – | – | – | –
298.15 K, x1 = 0.9743 | 1056.89 | 1061.44 | 1065.95 | 1070.16 | – | – | – | – | –
298.15 K, x1 = 1 | 1063.45 | 1068 | 1072.51 | 1076.72 | – | – | – | – | –
